Results reported in PMC6149664, “Synthesis and In Vitro Antimycobacterial Activity of Novel N-Arylpiperazines Containing an Ethane-1,2-diyl Connecting Chain” (Molecules : A Journal of Synthetic Chemistry and Natural …, 2017).
≈ marks a conversion by molar mass, not a printed value. Like-named read-outs stand apart in the source and are kept apart here.

Assays:
[1] = system: M. avium CNCTC My 330/80 (identical with ATCC 25291); assay: In vitro antimycobacterial MIC, dilution-micromethod in Šula semisynthetic medium; type: cell-based; conditions: Mycobacterium avium
[2] = system: M. kansasii 6 509/96 clinical isolate; assay: as above; type: cell-based; conditions: Mycobacterium kansasii, read-out: MIC, MK 6 509/96
[3] = system: M. tuberculosis CNCTC My 331/88 (identical with H37Rv and ATCC 2794); assay: as above; type: cell-based; conditions: Mycobacterium tuberculosis
[4] = system: M. kansasii CNCTC My 235/80 (identical with ATCC 12478); assay: as above; type: cell-based, Mycobacterium kansasii
[5] = system: M. kansasii CIT11/06; assay: In vitro antimycobacterial MIC (IC90), alamarBlue 96-well assay in Middlebrook broth; type: cell-based, Mycobacterium kansasii; conditions: 7 days incubation, read-out: MIC, MK CIT11/06
[6] = system: M. avium subsp. paratuberculosis CIT03; assay: microbe, parasite or virus in culture; type: cell-based; conditions: Mycobacterium avium, 168 h, read-out: MIC, MAP CIT03
[7] = system: M. avium intracellulare ATCC 13950; assay: In vitro antimycobacterial MIC (IC90), alamarBlue 96-well assay in Middlebrook broth; type: cell-based, Mycobacterium avium intracellulare; conditions: Mycobacterium avium, ATCC13950, 168 h, 7 days incubation, read-out: MIC, MAI ATCC 13950
[8] = system: M. avium hominissuis CIT10/08; assay: as above; type: cell-based, Mycobacterium avium hominissuis; conditions: Mycobacterium avium, 168 h, 7 days incubation, read-out: MIC, MAH CIT10/08
[9] = ATCC25291, 336 h, 14 d cultivation, read-out: MIC, MA My 330/88
[10] = ATCC25291, 504 h, 21 d cultivation, read-out: MIC, MA My 330/88
[11] = 336 h, 14 d cultivation, read-out: MIC, MT My 331/88
[12] = 504 h, 21 d cultivation, read-out: MIC, MT My 331/88
[13] = Mycobacterium kansasii, ATCC12478, 168 h, 7 d cultivation, read-out: MIC, MK My 235/80
[14] = Mycobacterium kansasii, ATCC12478, 336 h, 14 d cultivation, read-out: MIC, MK My 235/80
[15] = Mycobacterium kansasii, ATCC12478, 336 h, both M. kansasii strains, depending on strain and number of days of incubation (standards: 14-d/21-d), read-out: MIC against M. kansasii My 235/80 and M. kansasii 6 509/96
[16] = Mycobacterium kansasii, ATCC12478, 504 h, 21 d cultivation, read-out: MIC, MK My 235/80
[17] = both M. kansasii strains, depending on strain and number of days of incubation (standards: 14-d/21-d), read-out: MIC against M. kansasii My 235/80 and M. kansasii 6 509/96
[18] = Mycobacterium kansasii, CIT11/06, 168 h

Row | SMILES | MIC [1, 9] [µM] | MIC [1, 10] [µM] | MIC ([2]; 168 h, 7 d cultivation) [µM] | MIC ([2]; 336 h, 14 d cultivation) [µM] | MIC ([2]; 504 h, 21 d cultivation) [µM] | MIC [3, 11] [µM] | MIC [3, 12] [µM] | MIC [4, 13] [µM] | MIC [4, 14] [µM] | MIC [4, 15] [µM] | MIC [4, 16] [µM] | MIC [4, 17] [µM] | MIC ([1]; ATCC25291, 336 h, 14-d/21-d, read-out: MIC against M. avium CNCTC My 330/80) [µM] | MIC [5, 18] [µM] | MIC [6] [µM] | MIC [7] [µM] | MIC ([3]; 336 h, 14-d/21-d cultivation, read-out: MIC against M. tuberculosis CNCTC My 331/88) [µM] | MIC [8] [µM] | MIC [5] [µM]
1 | CC1COc2c(N3CCN(C)CC3)c(F)cc3c(=O)c(C(=O)O)cn1c23 (stereo not shown) [OFLX, ofloxacin, reference compound] | 32 (≈ 11.6 µg/mL) | 62.5 (≈ 22.6 µg/mL) | 0.5 (≈ 0.181 µg/mL) | 0.5 (≈ 0.181 µg/mL) | 1 (≈ 0.361 µg/mL) | 1 (≈ 0.361 µg/mL) | 2 (≈ 0.723 µg/mL) | 0.5 (≈ 0.181 µg/mL) | 1 (≈ 0.361 µg/mL) | 0.5 (≈ 0.181 µg/mL) | 1 (≈ 0.361 µg/mL) | 1 (≈ 0.361 µg/mL) | – | – | – | – | – | – | –
2 | CC[C@@H](CO)NCCN[C@@H](CC)CO [EMB, ethambutol, reference compound] | 16 (≈ 3.27 µg/mL) | 16 (≈ 3.27 µg/mL) | 1 (≈ 0.204 µg/mL) | 2 (≈ 0.409 µg/mL) | 2 (≈ 0.409 µg/mL) | 1 (≈ 0.204 µg/mL) | 2 (≈ 0.409 µg/mL) | 1 (≈ 0.204 µg/mL) | 2 (≈ 0.409 µg/mL) | 1 (≈ 0.204 µg/mL) | 2 (≈ 0.409 µg/mL) | 2 (≈ 0.409 µg/mL) | 16 (≈ 3.27 µg/mL) | – | – | – | – | – | –
3 | NNC(=O)c1ccncc1 [INH, isonicotinic acid hydrazide, reference compound] | > 250 | > 250 | 4 (≈ 0.549 µg/mL) | 8 (≈ 1.1 µg/mL) | 8 (≈ 1.1 µg/mL) | 0.5 (≈ 0.0686 µg/mL) | 0.5 (≈ 0.0686 µg/mL) | > 250 | > 250 | – | > 250 | – | – | > 1820 | > 1820 | > 1820 | 0.5 (≈ 0.0686 µg/mL) | > 1820 | –
4 | O=C(O)c1cn(C2CC2)c2cc(N3CCNCC3)c(F)cc2c1=O [CPX, ciprofloxacin, reference compound] | – | – | – | – | – | – | – | – | – | – | – | – | – | > 91 | – | – | – | – | >91
5 | NC(=O)c1cnccn1 [PZA, pyrazinamide, reference compound] | – | – | – | – | – | – | – | – | – | – | – | – | – | > 2030 | > 2030 | > 2030 | – | 487 (≈ 60 µg/mL) | –
